# Measurements as given in paper PMC6035067 (The Biochemical journal, 2018).
# “Also recorded” adds a separate entry of the source. Like-named read-outs stand apart in the source and are kept apart here.
# Tests used:
# [1] = biological target: T1, EtCYP112 (Erwinia tracheiphila, UniProt A0A0M2KIP9); assay: UV-Vis spectral binding titration of EtCYP112; conditions: for shift of the Soret-band from 419 to 391 nm: upon ligand addition
# [2] = biological target: T1, EtCYP112; type: biochemical; conditions: 20 μM substrate, 60 μM NADPH, 12 h at 25 °C
# [3] = biological target: T1, EtCYP112; conditions: previously tested as substrates; ref [9]; cited from earlier work
# [4] = conversion of EtCYP112 to high-spin state upon ligand addition
# [5] = α-band absorption at 570 nm upon ligand addition
conversion by EtCYP112 (products observed) [2],SMILES,"High Spin State [1, 4]","α-band Absorbtion [1, 5]",also measured
–,C=C1C[C@]23C[C@H]1CC[C@H]2[C@@]12CCC[C@@](C)(C(=O)O1)[C@H]2[C@@H]3C(=O)O [GA9],< 5%,without any decrease; also recorded: unchanged,shift of the Soret-band from 419 to 391 nm [1]: ~5%
–,C=C1C[C@]23C[C@H]1CC[C@H]2[C@]1(C)CCC[C@@](C)(C(=O)O)[C@H]1[C@@H]3C(=O)O [GA12],> 90%,decreased,–
–,"C=C1C[C@]23C[C@H]1CC[C@H]2[C@@]12CCC[C@@](C)(C(=O)OC1)[C@H]2[C@@H]3C(=O)O [GA15 (closed lactone), GA15]",> 90%,decreased,–
–,"C=C1C[C@]23C[C@H]1CC[C@H]2[C@]1(CO)CCC[C@@](C)(C(=O)O)[C@H]1[C@@H]3C(=O)O [GA15 (open lactone), GA15]",–,–,High Spin State [1]: > 90%; α-band Absorbtion [1]: decreased
–,C=C1C[C@]23C[C@H]1CC[C@H]2[C@]1(C=O)CCC[C@@](C)(C(=O)O)[C@H]1[C@@H]3C(=O)O [GA24],80 – 90%,decreased,–
–,C=C1C[C@]23C[C@H]1CC[C@H]2[C@]1(C(=O)O)CCC[C@@](C)(C(=O)O)[C@H]1[C@@H]3C(=O)O [GA25],10 – 20%,without any decrease; also recorded: unchanged,conversion by EtCYP112 [3]: does not react; shift of the Soret-band from 419 to 391 nm [1]: 10–20%
–,C=C1C[C@]23C[C@H]1CC[C@H]2[C@]1(C)CCC[C@@](C)(C(=O)OC)[C@H]1[C@@H]3C(=O)OC [MeGA12],50 – 60%,decreased,conversion by EtCYP112 [3]: converted by EtCYP112 to GA9; fold higher Kd than free GA12 ([1]; Kd of MeGA12 relative to GA12): 5 fold
–,C=C1C[C@]23C[C@H]1CC[C@H]2[C@@]12CCC[C@@](C)(C(=O)OC1)[C@H]2[C@@H]3C(=O)OC [MeGA15],80 – 90%,decreased,conversion by EtCYP112 [3]: converted by EtCYP112 to GA9; fold more tightly bound than the analogous form of free GA15 ([1]; MeGA15 (closed δ-lactone) relative to GA15 closed lactone): about 6 fold
–,C=C1C[C@]23C[C@H]1CC[C@H]2[C@]1(C=O)CCC[C@@](C)(C(=O)OC)[C@H]1[C@@H]3C(=O)OC [MeGA24],5 – 10%,no decrease; also recorded: unchanged,conversion by EtCYP112 [3]: does not react; shift of the Soret-band from 419 to 391 nm [1]: only induces a partial shift
no products were observed,C=C1C[C@@]23CC[C@H]4[C@@](C)(CCC[C@@]4(C)C=O)[C@@H]2CC[C@@H]1C3 [ent-kaurenal],5 – 10%,decreased,–
did not serve as substrates,C=C1C[C@@]23CC[C@@H]4C(C)(C)CCC[C@@]4(C)[C@@H]2CC[C@@H]1C3 [ent-kaurene],< 5%,no decrease; also recorded: unchanged,shift of the Soret-band from 419 to 391 nm [1]: only induces a small shift
no products were observed,C=C1C[C@@]23CC[C@@H]4[C@](C)(CO)CCC[C@@]4(C)[C@@H]2CC[C@@H]1C3 [ent-kaurenol],20 – 30%,decreased,–
no products were observed,C=C1C[C@@]23CC[C@H]4[C@@](C)(CCC[C@@]4(C)C(=O)OC)[C@@H]2CC[C@@H]1C3 [methyl-ent-kaurenoate],10 – 15%,decreased,–

SMILES,conversion by EtCYP112 (products observed) [2],"High Spin State [1, 4]","α-band Absorbtion [1, 5]",also measured
"C=C1C[C@]23C[C@H]1CC[C@H]2[C@]1(C)CCC[C@@](C)(C(=O)O)[C@H]1C[C@@H]3O (single isomer, unassigned) [ent-7α-hydroxy kaurenoic acid]",no products were observed,50 – 60%,decreased,–
C=C1C[C@]23C[C@H]1CC[C@H]2[C@]1(C)CCC[C@@](C)(C(=O)O)[C@H]1[C@@H]3C=O [GA12-aldehyde],transformed into two products,> 90%,decreased,–
C=C1C[C@@]23CC[C@H]4[C@@](C)(CCC[C@@]4(C)C(=O)O)[C@@H]2CC[C@@H]1C3 [ent-kaurenoic acid],no products were observed,50 – 60%,decreased,–
